pIC50: −log10 of the molar value.
Assays:
[1] = target: T1, Tyrosine-protein kinase receptor UFO (Homo sapiens, UniProt P30530); assay: Inhibition of recombinant human His-tagged AXL expressed in insect cells after 60 mins by Z'-LYTE assay
T1 sequence (P30530 whole entry): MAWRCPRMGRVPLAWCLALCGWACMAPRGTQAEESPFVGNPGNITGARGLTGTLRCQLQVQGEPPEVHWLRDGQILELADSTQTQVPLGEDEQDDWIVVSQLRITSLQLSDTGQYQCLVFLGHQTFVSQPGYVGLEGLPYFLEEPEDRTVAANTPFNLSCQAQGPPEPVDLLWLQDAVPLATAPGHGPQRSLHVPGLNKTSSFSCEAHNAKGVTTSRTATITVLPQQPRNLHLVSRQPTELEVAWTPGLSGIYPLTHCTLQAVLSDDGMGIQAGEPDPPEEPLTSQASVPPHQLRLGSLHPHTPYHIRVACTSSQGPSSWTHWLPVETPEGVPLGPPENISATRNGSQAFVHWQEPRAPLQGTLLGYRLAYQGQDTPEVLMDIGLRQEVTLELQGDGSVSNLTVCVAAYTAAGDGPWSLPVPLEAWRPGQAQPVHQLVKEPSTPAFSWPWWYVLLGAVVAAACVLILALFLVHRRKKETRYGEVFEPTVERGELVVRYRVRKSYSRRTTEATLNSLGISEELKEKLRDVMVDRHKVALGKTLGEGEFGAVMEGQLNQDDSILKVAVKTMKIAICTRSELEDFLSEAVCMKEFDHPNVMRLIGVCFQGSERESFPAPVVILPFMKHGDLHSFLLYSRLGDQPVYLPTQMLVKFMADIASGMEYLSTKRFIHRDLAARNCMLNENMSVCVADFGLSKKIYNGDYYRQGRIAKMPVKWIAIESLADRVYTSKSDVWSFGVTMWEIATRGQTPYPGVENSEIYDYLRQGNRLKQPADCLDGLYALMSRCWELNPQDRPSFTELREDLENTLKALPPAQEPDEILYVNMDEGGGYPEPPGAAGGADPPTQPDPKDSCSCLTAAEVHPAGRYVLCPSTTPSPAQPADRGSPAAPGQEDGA

[2] = target: Tyrosine-protein kinase receptor UFO (Homo sapiens) (UniProt P30530); conditions: 1 uM
Description: Inhibition of recombinant human His-tagged AXL expressed in insect cells at 1 uM after 60 mins by Z'-LYTE assay relative to control

SMILES	pIC50 [1]	inhibition [2] [%]
O=C(O)c1cc(-c2c[nH]c3ncc(-c4ccccc4)cc23)ccc1F	< 6.00	–
c1ccc(-c2cnc3[nH]cc(-c4ccc(-c5nnn[nH]5)cc4)c3c2)cc1	6.28	75
O=C(O)c1ccc(-c2c[nH]c3ncc(-c4ccccc4)cc23)cc1	6.74	–
